One experiment addresses T1, hTRPC5 S495A (Homo sapiens, UniProt Q9UL62, S495A).
T1 construct: We use full-length nontagged hTRPC5 construct for FLIPR assay unless indicated otherwise; expressed in transfected cells; host or cells: AD293
T1 sequence (Q9UL62 1-973 S495A): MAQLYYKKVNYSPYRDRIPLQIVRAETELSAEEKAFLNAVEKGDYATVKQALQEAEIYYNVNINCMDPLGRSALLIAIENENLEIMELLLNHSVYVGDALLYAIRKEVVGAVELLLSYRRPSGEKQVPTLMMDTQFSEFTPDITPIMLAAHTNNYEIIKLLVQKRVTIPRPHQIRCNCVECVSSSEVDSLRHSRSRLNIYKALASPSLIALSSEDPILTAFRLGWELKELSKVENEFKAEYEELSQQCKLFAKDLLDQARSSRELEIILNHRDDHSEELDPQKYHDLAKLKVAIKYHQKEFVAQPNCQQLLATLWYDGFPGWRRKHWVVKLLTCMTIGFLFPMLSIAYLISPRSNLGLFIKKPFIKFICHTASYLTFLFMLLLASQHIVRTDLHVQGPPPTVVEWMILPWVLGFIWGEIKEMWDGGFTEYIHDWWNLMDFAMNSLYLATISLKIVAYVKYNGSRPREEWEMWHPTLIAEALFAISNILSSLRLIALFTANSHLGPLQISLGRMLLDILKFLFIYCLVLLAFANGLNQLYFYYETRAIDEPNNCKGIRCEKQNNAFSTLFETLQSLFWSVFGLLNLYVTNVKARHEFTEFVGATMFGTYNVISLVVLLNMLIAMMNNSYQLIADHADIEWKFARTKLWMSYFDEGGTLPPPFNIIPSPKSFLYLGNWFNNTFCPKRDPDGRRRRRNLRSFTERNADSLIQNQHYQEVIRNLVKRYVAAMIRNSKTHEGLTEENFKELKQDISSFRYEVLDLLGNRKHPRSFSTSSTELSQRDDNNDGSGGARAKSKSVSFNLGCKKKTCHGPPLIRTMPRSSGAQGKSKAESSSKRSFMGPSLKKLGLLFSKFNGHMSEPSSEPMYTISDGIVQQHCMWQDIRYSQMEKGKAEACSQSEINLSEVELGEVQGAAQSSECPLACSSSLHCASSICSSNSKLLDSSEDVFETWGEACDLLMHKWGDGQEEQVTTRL
Briefly: FLIPR calcium assay, hTRPC5 mutant S495A. It is filed as cell-based. The procedure:
[…]. Then the suspended cell culture was further diluted for 5.4- to 7-fold with culture medium and seeded onto black well, clear bottom, poly-D-lysine-coated 96-well plate (Costar) and cultured overnight. We use full-length nontagged hTRPC5 construct for FLIPR assay unless indicated otherwise. hTRPC5 plasmids were transfected into AD293 cells (60-80% confluence) with PEI. 30–40 hr post-transfection, culture medium was discarded and cells were incubated with 50 μl per well of 4 μM Rhod-2/AM (AAT Bioquest) in TARODES’s buffer (10 mM HEPES, 150 mM NaCl, 4 mM KCl, 2 mM MgCl2, 2 mM CaCl2, 11 mM glucose, pH 7.4) supplemented with 0.02% Pluronic F-127 (Sigma) for 5 min in dark at room temperature. Then dye was removed and replaced with 50 μl of TARODE’s buffer per well. The application of compounds and detection of intracellular calcium elevation were performed using FLIPR-TETRA (Molecular Devices) at room temperature (25–27°C). Fluorescence signals were read with excitation/emission at 510–545/565–625 nm.
[…]. Then fluorescence was measured for 300 s.
Buffer A contains 2× concentration of working concentration of inhibitor. […]. for control-Min, both buffer A and buffer B were replaced by TARODE’s buffer.
[…]; the average of fluorescence value of last 20 time points was considered as the ‘end fluorescence’. The value of ‘end fluorescence’ minus ‘start fluorescence’ was considered as ‘signal value’ for each well. […].
Three independent experiments were performed on different days (biological replicates), with each experiment containing three replicates (technique replicates).

Another experiment deals with T2, hTRPC5_1-764 (Homo sapiens, UniProt Q9UL62).
T2 sequence (Q9UL62 1-764): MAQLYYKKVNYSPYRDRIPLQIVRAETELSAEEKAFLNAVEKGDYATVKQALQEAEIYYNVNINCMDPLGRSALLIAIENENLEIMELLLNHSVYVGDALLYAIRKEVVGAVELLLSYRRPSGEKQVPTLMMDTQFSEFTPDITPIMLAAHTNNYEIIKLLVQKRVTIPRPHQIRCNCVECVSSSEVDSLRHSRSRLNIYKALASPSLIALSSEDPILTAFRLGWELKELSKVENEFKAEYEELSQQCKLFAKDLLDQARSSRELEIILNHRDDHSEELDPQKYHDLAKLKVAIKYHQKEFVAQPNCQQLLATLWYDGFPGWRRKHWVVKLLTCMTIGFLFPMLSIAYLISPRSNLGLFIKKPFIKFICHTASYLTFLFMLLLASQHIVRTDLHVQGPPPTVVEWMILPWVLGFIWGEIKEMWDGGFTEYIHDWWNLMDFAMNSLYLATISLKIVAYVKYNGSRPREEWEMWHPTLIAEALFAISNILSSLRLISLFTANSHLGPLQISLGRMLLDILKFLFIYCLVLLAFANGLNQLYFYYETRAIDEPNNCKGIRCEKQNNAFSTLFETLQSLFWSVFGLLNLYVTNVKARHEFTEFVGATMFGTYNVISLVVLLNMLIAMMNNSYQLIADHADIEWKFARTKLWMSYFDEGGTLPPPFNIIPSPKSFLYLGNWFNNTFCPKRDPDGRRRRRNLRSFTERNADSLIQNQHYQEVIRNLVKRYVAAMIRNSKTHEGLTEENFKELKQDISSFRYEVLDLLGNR
Briefly: FLIPR calcium assay, C-terminally truncated construct hTRPC5_1-764. To be noted: 14 mM extracellular calcium; AD293 cells.

The values below come from publication PMC7987348, “Structural basis for human TRPC5 channel inhibition by two distinct inhibitors” (eLife, 2021).

Each structure is given as a SMILES string. Where two headings read alike, the source gives them in different places.

The term Hill slope denotes the slope factor of the fitted curve.

As to `Clc1ccc(Cn2c(CN3CCCC3)nc3ccccc32)cc1` [CMZ, clemizole], the Hill slope at hTRPC5 S495A (CMZ) was −1.21. Further, the IC50 on hTRPC5 S495A (CMZ, 14 mM extracellular calcium, read-out: IC50) was 3.03 µM; on hTRPC5 S495A (CMZ, log of IC50 in μM, logIC50 ± SEM, n = 3, read-out: LogIC50 (converted)), 3.02 µM. The remaining activity at 0.200195 µM at hTRPC5 S495A (read-out: normalized RFU (% WT), Clemizole 0.200195 μM, 14 mM Ca2+, each column one independent experiment) came out at 83%. The remaining activity at 0.400391 µM on hTRPC5 S495A (read-out: normalized RFU (% WT), Clemizole 0.400391 μM, 14 mM Ca2+, each column one independent experiment) turned out to be 78.4%. In addition, the remaining activity at 0.800781 µM at hTRPC5 S495A (read-out: normalized RFU (% WT), Clemizole 0.800781 μM, 14 mM Ca2+, each column one independent experiment) was determined as 82%. In addition, the remaining activity at 1.60156 µM at hTRPC5 S495A (read-out: normalized RFU (% WT), Clemizole 1.60156 μM, 14 mM Ca2+, each column one independent experiment) is 79.3%. Besides, at hTRPC5 S495A (read-out: normalized RFU (% WT), Clemizole 3.20312 μM, 14 mM Ca2+, each column one independent experiment), the remaining activity at 3.20312 µM was 50.6%. In addition, on hTRPC5 S495A (read-out: normalized RFU (% WT), Clemizole 6.40625 μM, 14 mM Ca2+, each column one independent experiment), the remaining activity at 6.40625 µM stood at 46.5%. Further, the remaining activity at 12.8125 µM at hTRPC5 S495A (read-out: normalized RFU (% WT), Clemizole 12.8125 μM, 14 mM Ca2+, each column one independent experiment) was determined as 40.3%. Also, the “inhibition of hTRPC5_1-764” value at hTRPC5_1-764 is listed as “can be inhibited”.
